From ChEMBL document CHEMBL4507295 (2021)

Assays:
[1] = biological target: Delta-type opioid receptor (Homo sapiens) (UniProt P41143); assay: Opiate delta (OP1, DOP) Eurofins-Panlabs radioligand binding assay; details: Compound concentration 10.0 uM
[2] = biological target: Tyrosine 3-monooxygenase (Homo sapiens) (UniProt P07101); assay: Tyrosine Hydroxylase Eurofins-Panlabs enzyme assay; design: substrate with concentration; details: Rattus norvegicus; Compound concentration 10.0 uM
[3] = biological target: Somatostatin receptor type 4 (Homo sapiens) (UniProt P31391); assay: Somatostatin sst4 Eurofins-Panlabs radioligand binding assay; design: ligand concentration 0.1 nM, non-specific ligand with concentration 1 µM Somatostatin-14, incubation time 45 min, incubation temperature 25 °C; details: Compound concentration 10.0 uM
Caspase-1 (Homo sapiens) = Caspase-1 (Homo sapiens) (UniProt P29466); assay: Inhibition of Peptidase, CASP1 (Caspase 1) at 10 µM in the Eurofins-Panlabs enzyme assay (Eurofins_assay_163000); details: Compound concentration 10.0 uM

Measured: inhibition

Delta-type opioid receptor (Homo sapiens), sequence (P41143 whole entry): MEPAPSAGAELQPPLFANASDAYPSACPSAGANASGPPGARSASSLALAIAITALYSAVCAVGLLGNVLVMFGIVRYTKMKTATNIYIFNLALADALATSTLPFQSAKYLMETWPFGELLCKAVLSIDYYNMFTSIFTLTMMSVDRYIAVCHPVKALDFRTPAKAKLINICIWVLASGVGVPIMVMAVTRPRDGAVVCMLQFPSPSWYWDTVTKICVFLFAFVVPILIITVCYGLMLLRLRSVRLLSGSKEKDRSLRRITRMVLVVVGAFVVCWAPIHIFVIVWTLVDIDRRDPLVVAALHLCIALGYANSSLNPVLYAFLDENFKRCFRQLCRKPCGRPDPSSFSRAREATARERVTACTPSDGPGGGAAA
Somatostatin receptor type 4 (Homo sapiens), sequence (P31391 whole entry): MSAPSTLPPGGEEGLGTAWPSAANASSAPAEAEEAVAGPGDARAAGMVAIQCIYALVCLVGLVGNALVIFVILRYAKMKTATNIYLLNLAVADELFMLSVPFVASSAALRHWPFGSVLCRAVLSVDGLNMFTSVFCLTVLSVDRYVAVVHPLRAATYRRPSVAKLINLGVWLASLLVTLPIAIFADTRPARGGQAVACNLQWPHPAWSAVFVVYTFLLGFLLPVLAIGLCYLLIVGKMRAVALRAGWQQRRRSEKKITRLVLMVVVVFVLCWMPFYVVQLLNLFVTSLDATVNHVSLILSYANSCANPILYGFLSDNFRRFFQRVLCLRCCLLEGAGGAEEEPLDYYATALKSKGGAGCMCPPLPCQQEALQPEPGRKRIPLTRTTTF
Tyrosine 3-monooxygenase (Homo sapiens), sequence (P07101 whole entry): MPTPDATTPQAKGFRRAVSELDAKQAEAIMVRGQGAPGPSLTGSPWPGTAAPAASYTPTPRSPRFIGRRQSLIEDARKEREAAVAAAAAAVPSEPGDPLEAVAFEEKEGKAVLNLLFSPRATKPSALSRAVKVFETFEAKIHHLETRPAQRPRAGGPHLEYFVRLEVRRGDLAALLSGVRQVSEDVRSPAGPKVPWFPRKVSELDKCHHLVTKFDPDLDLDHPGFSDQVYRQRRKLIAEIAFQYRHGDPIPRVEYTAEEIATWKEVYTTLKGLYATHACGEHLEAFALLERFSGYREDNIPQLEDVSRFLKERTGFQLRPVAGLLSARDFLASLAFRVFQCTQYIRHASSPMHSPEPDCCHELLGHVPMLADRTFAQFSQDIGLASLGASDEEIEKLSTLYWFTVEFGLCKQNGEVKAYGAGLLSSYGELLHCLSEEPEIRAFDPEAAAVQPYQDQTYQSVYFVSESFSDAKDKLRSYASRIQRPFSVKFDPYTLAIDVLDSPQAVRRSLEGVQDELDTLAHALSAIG
Caspase-1 (Homo sapiens), sequence (P29466 120-297 limits assumed): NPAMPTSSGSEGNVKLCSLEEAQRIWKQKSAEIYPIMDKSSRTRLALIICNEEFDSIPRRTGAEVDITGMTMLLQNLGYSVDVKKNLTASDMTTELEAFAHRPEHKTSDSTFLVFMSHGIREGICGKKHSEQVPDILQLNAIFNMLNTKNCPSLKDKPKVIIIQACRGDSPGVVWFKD
Caspase-1 (Homo sapiens), sequence (P29466 317-404 limits assumed): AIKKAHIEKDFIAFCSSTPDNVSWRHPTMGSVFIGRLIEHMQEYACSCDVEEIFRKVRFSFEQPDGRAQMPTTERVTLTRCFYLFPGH

N#CC1(c2ccccn2)CCN(Cc2cc(C(=O)O)c(=O)n3ccccc23)CC1 [MSD-M1PAM]
inactive: [1] 19% | [2] -2% | [3] -1% | Caspase-1 (Homo sapiens) 7%
